Measured values as given in patent US20040235717A1, “Suppression of androgen receptor transactivation through new pathways to ar and ar coactivators and repressors” (priority 2001, published 2004).
Like-named read-outs stand apart in the source and are kept apart here. Each block holds one compound with its values, some of them ahead of it.

Columns and labels:
[1] = system: wtAR, mtARt877a, PR, VDR, ER transactivation; conditions: previous reports; cited from earlier work
[2] = system: wtAR, mtARt877a, PR, VDR, ER transactivation; assay: Steroid receptor transactivation with Smad3 in DU145 cells (wtAR, mtARt877a, PR, VDR, ER); type: cell-based, human
[3] = system: AR transactivation; assay: AR transactivation with TSA, MMTV-LUC in PC3-AR2 cells; type: cell-based
[4] = system: AR transactivation; conditions: previous reports; cited from earlier work
[5] = system: PSA mRNA expression; assay: PSA mRNA expression in LNCaP cells, Northern blot; type: cell-based; conditions: presence of androgen
[6] = system: U87MG cells; assay: PTEN-induced apoptosis in AR-negative U87MG cells, TUNEL assay; type: cell-based
Description: (§1) 31. […] (D) The LNCaP cells were transfected with plasmids as indicated for 16 h, and the medium was changed to 0.1% CDS media for 2 days. The cell apoptosis was determined by TUNEL assay (E) The LNCaP cells were transfected with plasmids as indicated for 16 h, harvested, and the cell extracts were subjected to SDS-PAGE. The Akt activity was determined by Western blotting using phospho(S473)-Akt antibody. (F) The U87MG cells were transfected with plasmids as indicated for 16 h, and the medium was changed 0.1% CDS media for 2 days. The cell apoptosis was determined by TUNEL assay. Data for luciferase activity and apoptosis are means±s.d. from three independent experiments.
311. For the apoptosis assay, the cells were transfected with plasmids for 24 h and grown in 0.1% charcol-stripped serum (CDS) media. The apoptosis was determined 2 days after transfection using the TUNEL assay according to the standard procedures (Oncogene). At least 200 cells were scored for each sample and data are means±s.d. from three independent experiments.

[7] = system: AR transactivation; assay: AR transactivation, (ARE)4-luc in CWR22 cells; type: cell-based, human
Description: as §1
312. […] The cells were lysed and the luciferase activity was detected by the dual luciferase assay according to standard procedures.

[8] = system: AR protein stability; assay: Pulse-chase labeling of AR in COS-1 cells; type: cell-based; conditions: 10 nM DHT
Description: 30. […] The cells were harvested for Western blot analysis. […] Western blot analysis was performed and AR and PTEN were detected by AR antibody or PTEN antibody. (C) PTEN-C1 cells were treated with 4 μg/ml Dox in 10% CDS media for 48 h. Total RNA was prepared and Northern blot analysis was performed using [^32P]-dCTP-labeled AR (aa, 1-389) as a probe. (D) COS-1 cells were transfected with AR along with pCDNA3 or PTEN in 10% CDS media for 16 h. […] The cell extracts were immunoprecipitated with AR antibody and subjected to SDS-PAGE followed by autoradiography. Data were from three identical results. (E) COS-1 cells were transfected with AR along with pCDNA3 or dAkt in 10% CDS media for 16 h, pulsed with [^35S]-methionine for 45 min, and then harvested at different chase times as indicated. LY294002 (20 μM) was added 2 h before pulsing with [^35S]-methionine.
317. Pulse-chase experiments were performed as described (Lo et al. (1999) Nat Cell Biol 1, 472-8) with some modifications. Briefly, COS-1 cells were transfected with pSG5-AR in combination with pCDNA3 or pCDNA3 PTEN in 10% CDS media for […]. Cells were grown under serum starvation conditions for 2 h in methionine/cysteine-deficient medium, and then the cells were pulsed for 45 min with 200 μCi/ml [^35S]-methionine/cysteine (NEN). […]

[9] = system: AR transactivation; assay: AR transactivation, MMTV-luc / (ARE)4-luc luciferase reporter assay; type: cell-based; conditions: 10 nM DHT; for Repression of AR transactivation: MMTV-luc
[10] = system: LNCaP cells; assay: PTEN-induced apoptosis in LNCaP cells, TUNEL assay; type: cell-based; conditions: 0.1% CDS media 2 days
[11] = system: AR, ER, GR, PR, RXR; assay: GST pull-down assay of PTEN with nuclear receptors; type: binding; conditions: presence or absence of ligand
Description: 27. […] (A) GST or GST-PTEN incubation with the [^35S]-labeled AR, ER, or RXR for 2 h in the presence or absence of the ligand. The bound proteins were analyzed by SDS-PAGE, followed by autoradiography. (B) Representation of PTEN deleted mutants. PTP domain, protein tyrosine phosphates domain; Ty-p, tyrosine phosphorylation domain. (C) [^35S]-labeled AR was incubated with different PTEN deleted mutants. The nearly equivalent aliquots of PTEN deleted mutants used are shown in the right panel. (D) Representation of AR deleted mutants. (E) GST or GST-PTEN was incubated with different AR deleted mutants. (F) The His-AR-N-DBD was incubated with [^35S]-PTEN or [^35S]-PTEN C124S for 2 h. The bound protein was analyzed by the SDS-PAGE, followed by autoradiography.
313. GST fusion proteins were purified as described by the manufacturer (Amersham Pharmacia). The purified GST-proteins were resuspended with 100 μl of interaction buffer (20 mM Tris-HCl/pH 8.0, 60 mM NaCl, 1 mM EDTA, 6 mM MgCl2, 1 mM Dithiothreitol, 8% Glycerol, 0.05% (v/v) NP-40, 1 mM PMSF, and proteinase inhibitors) and mixed with 5 μl of [^35S]-labeled TNT proteins in the presence or absence of 1 μM ligands on a rotating disk at 4° C. for 2 h. After extensive washes with NENT buffer, the bound proteins were separated on an 8% SDS-polyacrylamide gel and visualized by autoradiography.

[12] = system: AR protein levels; assay: AR protein (Western blot) and AR mRNA (Northern blot) levels; type: cell-based
[13] = system: AR transactivation; assay: AR transactivation with Smad3/Smad4, CAT reporters in PC3-AR2, PC-3 and LNCaP cells; type: cell-based, human; conditions: PC3-AR2
Description: 32. […] LNCaP cell were transfected with Smad3 or Smad4 expression vector instead of PC-3(AR)2 cells in experiments otherwise identical with those in A (B), PC-3(AR)2 cells stably transfected with AR were over-expressed with the indicated amounts of Smad3 or Smad4 or SRC-1. 3 μg of MMTV-CAT was used as a reporter plasmid in all experiments. All values represent the averages±SD of four independent experiments. […] PSA expression level was determined by Northern blotting. The probe was obtained from exon 1 of the PSA gene and labeled with [α-^32P] dCTP. A β-actin probe was used as a control for equivalent mRNA loading. (C, Table 1) The RNA samples from (A) were reverse transcribed to cDNAs and all of the samples were subjected to real-time CR using an ABI Prism 7700 Sequence Detection System (Perkin-Elmer Applied bio systems). PCR was performed using the SYBR Green PCR Core Reagents kit (Perkin-Elmer Applied Bio systems). PSA and β-actin forward, reverse primers concentrations were 2.5 μM. To reduce variability between replicates, PCR premixes which contained all reagents except for total RNA were prepared and aliquoted into 1.5 ml microfuge tubes. Specific PCR amplification products were detected by the fluorescent double-stranded DNA-binding dye SYBR Green core reagent kit. […]
333. […] The CAT activity was visualized and quantitated by STORM 840 (Molecular Dynamics). […]

[14] = target: T1, interaction between Smad3 and AR (Homo sapiens, UniProt P10275); assay: Mammalian two-hybrid assay Gal4-Smad3 / VP16-AR; type: cell-based; conditions: DU145
T1 construct: expressed in transfected cells; host or cells: DU145

[15] = system: AR-mediated transactivation; assay: AR-mediated transactivation with TGF-β, MMTV-CAT in DU145 and PC-3 cells; type: cell-based, human
Description: 19. […] (B). […] In the right panel, a fixed amount of TGF-β1 (10 ng/ml) was added into transfected PC-3 cells with increasing amounts of specific TGF-β1 neutralizing antibody. (C), PC-3(AR)2 cells stably transfected with AR were overexpressed with TGF-β type I (TβRI) or type II (TβRII)receptor or constitutively active TGF-β type I receptor (TβRI-T204D) as indicated. 3 μg of MMTV-CAT or MMTV-Luc was used as a reporter plasmid in all experiments. All values represent the averages+SD of four independent experiments.
284. To study the potential correlation between androgen and TGF-β in prostate cancer cells, the TGF-β responsive prostate cancer DU145 and PC-3 cells were chosen to examine the effect of TGF-β on androgen-induced mouse […] tumor virus (MMTV) promoter activity. […] Similar results were obtained with PC-3 cells, where AR-mediated transactivation was enhanced by TGF-β (FIG. 13B, lane 2 Vs 3-5) and suppressed by the TGF-β specific neutralizing antibody (FIG. 13B, lane 6 vs. 7-10), both in a dose-dependent manner (FIG. 13B).
294. […] The CAT activity was visualized and quantitated by STORM 840 (Molecular Dynamics). […]

T1 sequence (P10275 whole entry, the tested form may be a part): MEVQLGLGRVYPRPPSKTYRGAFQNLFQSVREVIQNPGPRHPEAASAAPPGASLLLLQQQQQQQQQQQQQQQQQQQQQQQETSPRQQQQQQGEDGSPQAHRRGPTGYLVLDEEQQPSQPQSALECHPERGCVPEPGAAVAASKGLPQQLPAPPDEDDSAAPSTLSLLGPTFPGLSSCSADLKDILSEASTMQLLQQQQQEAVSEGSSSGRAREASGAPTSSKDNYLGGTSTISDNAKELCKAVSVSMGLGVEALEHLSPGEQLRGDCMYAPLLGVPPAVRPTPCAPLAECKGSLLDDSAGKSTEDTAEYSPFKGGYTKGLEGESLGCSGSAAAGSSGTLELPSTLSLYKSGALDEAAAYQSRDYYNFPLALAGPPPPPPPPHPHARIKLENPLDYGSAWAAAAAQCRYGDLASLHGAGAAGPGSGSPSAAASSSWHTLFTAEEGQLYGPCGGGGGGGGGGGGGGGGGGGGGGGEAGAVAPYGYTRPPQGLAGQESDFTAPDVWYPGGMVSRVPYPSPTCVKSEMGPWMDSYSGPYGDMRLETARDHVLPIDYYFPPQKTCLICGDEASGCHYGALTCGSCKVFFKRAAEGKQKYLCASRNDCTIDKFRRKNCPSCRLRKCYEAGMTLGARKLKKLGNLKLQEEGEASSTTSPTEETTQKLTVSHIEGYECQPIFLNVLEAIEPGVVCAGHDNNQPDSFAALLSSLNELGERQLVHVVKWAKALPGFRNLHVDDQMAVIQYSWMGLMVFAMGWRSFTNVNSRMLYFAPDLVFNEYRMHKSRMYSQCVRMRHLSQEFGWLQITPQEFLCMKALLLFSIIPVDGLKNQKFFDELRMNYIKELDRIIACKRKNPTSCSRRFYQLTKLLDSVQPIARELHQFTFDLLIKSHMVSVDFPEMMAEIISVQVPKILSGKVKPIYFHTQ
T1 sequence (P84022 whole entry partner, the tested form may be a part): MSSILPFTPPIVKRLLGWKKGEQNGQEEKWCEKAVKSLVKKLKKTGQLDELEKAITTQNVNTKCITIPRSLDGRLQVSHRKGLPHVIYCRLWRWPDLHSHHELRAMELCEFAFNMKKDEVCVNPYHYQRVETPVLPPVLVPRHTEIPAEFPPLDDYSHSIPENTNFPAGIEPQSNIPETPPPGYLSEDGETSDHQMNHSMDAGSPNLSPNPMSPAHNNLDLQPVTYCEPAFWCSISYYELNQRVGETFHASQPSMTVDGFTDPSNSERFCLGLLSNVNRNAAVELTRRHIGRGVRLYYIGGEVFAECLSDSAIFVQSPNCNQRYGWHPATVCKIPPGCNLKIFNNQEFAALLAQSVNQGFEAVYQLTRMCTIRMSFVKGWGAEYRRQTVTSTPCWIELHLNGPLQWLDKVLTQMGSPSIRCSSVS

Compound: C[C@]12CC[C@@H]3c4ccc(O)cc4CC[C@H]3[C@@H]1CC[C@@H]2O [E2, 17-β estradiol]
- Stimulation of LNCaP mtARt877a [1]: stimulated
- mtARt877a transactivation response to ligand [2]: responded much better
- wtAR transactivation response to ligand ([2]; DHT 10 nM, HF 1 μM, E2 10 nM): respond marginally

Compound: CC(/C=C/C(=O)NO)=C\[C@@H](C)C(=O)c1ccc(N(C)C)cc1 [TSA, trichostatin A]
- Effect on Smad3/Smad4-suppressed AR transactivation [3]: reverse the Smad3/Smad4-suppressed AR transactivation in a dose-dependent manner
- Effect on AR transactivation ([3]; DHT, increasing doses): enhance AR transactivation in a dose-dependent manner
- Effect on Smad3/Smad4-suppressed AR transactivation ([3]; listed as trichostatin A): reverse Smad3/Smad4-repressed AR transactivation
- Effect on androgen-mediated AR transactivation [4]: induce the androgen-mediated AR transactivation

Compound: CC(=O)[C@H]1CC[C@H]2[C@@H]3CCC4=CC(=O)CC[C@]4(C)[C@H]3CC[C@]12C [progesterone]
- Stimulation of LNCaP mtARt877a [1]: stimulated

Compound: PTEN: tumor suppressor, phosphatase and tensin homolog deleted on chromosome ten
- Effect on androgen-induced PSA mRNA expression [5]: repressed
- Apoptosis [6]: still able to induce apoptosis
- Effect on AR transactivation [7]: dramatically suppressed AR transactivation
- Reduction of the half-life of newly synthesized [35S]-AR [8]: 4 to 5 fold
- Repression of AR transactivation ([9]; AR negative DU145 and PC-3): less than 2 fold
- Repression of AR transactivation ([9]; AR-positive LNCaP cells): 4 fold
- Effect on AR transactivation ([9]; LNCaP, MMTV-luc and (ARE)4-luc): suppressed AR transactivation in both luciferase reporters at a similar level
- Apoptosis [10]: induce apoptosis markedly
- Binding to nuclear receptors [11]: binds preferentially to AR and the ER
- AR protein levels ([12]; COS-1 cells, transient transfection): reduce AR protein levels
- AR mRNA levels normalized by β-actin ([12]; LNCaP PTEN-C1, Dox-induced PTEN): remained relatively unchanged
- Endogenous AR protein levels ([12]; stable LNCaP clones, 4 μg/ml Dox 48 h, 10 nM DHT): reduced endogenous AR protein levels

Compound: SRC-1: steroid receptor coactivator-1
- Effect on AR transactivation in the presence of Smad3 or Smad4 [13]: increase AR transactivation

- Effect on Smad3-AR two-hybrid reporter gene activity ([14]; 10 nM DHT): further induced
- Effect on Smad3-AR two-hybrid reporter gene activity ([14]; absence of DHT): cannot exert this effect
Compound: TGF-β: transforming growth factor β
- Effect on AR-mediated transactivation ([15]; DU145, 10^−8 M DHT, TGF-β1 10 ng/ml): enhanced
- Effect on AR-mediated transactivation ([15]; PC-3, dose-dependent): enhanced
